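Grown in 96-well plates, cells were treated for 48 hours with each compound at five concentrations. Insufficient inhibition: endpoint recorded as highest concentration tested. Here, GI50 denotes the concentration required for 50% inhibition of growth.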 Active and inactive are the calls of the source. Rule as the data show it: active = GI50 up to about 1.1 µM and inactive = higher.

Holding throughout (assay): growth of human tumour cells (NCI), 48 h
Assay [1] deals with A498.
Assay [2] concerns UACC-62.
Assay [3] concerns SN12C.
The subject of assay [4] is HCT-15.
The subject of assay [5] is SNB-75.
For assay [6], the system named is UACC-257.
Assay [7] concerns RPMI-8226.
Assay [8] deals with HCT-116.
Assay [9] has as its system HCC 2998.
Assay [10] deals with OVCAR-3.
Assay [11] relates to CCRF-CEM.
Assay [12] has as its system U-251.
The test system of assay [13] is SF-539.
Assay [14] deals with SK-MEL-28.
The subject of assay [15] is IGROV-1.
Assay [16] deals with UO-31.
For assay [17], the system named is HT-29.
The subject of assay [18] is SK-OV-3.
For assay [19], the system named is OVCAR-5.

Consider `Cc1csc(=S)n1OC(=O)NC1CCCCC1`, for which the GI50 is > 92.5 µM (inactive) in assay [1]; > 38.1 µM (inactive) in assay [2]; > 100 µM (inactive) in assay [3]; more than 100 µM in [4]; > 79.4 µM (inactive) in [5]; > 60.1 µM (inactive) in assay [6]. The GI50 in assay [7] is 23.6 µM (inactive); in assay [8], > 58.2 µM (inactive); in assay [9], > 100 µM (inactive); in assay [10] it was > 63.8 µM (inactive); in assay [11], 9.57 µM (inactive); in [12], 63.8 µM (inactive). Besides, the GI50 is > 100 µM (inactive) in [13]; > 34.6 µM (inactive) in [14]; > 100 µM (inactive) in assay [15]; > 100 µM (inactive) in assay [16]; > 48.9 µM (inactive) in [17]; > 100 µM (inactive) in [18].
For `CSc1ncc2c(n1)C(C#N)C1Sc3ccccc3N1C2=O` (centres undefined), the GI50 is > 100 µM (inactive) in [1]; > 100 µM (inactive) in assay [3]; more than 100 µM in [4]; 22.9 µM (inactive) in assay [5]; > 100 µM (inactive) in assay [6]; > 100 µM (inactive) in assay [7]. For the same molecule, the GI50 in assay [8] is > 100 µM (inactive); in assay [19] it was > 100 µM (inactive); in assay [10] it was > 100 µM (inactive); in assay [12] it was 34.5 µM (inactive); in assay [13] it was 37.3 µM (inactive); in [14] it was > 100 µM (inactive). Moreover, the GI50 in [15], in [16], in [17] and in [18] was > 100 µM (inactive) throughout.
As to `Cc1ccc(NC(=S)SCCC(=O)O)cc1`, the GI50 in assay [1] is > 100 µM (inactive); in [3], > 100 µM (inactive); in assay [4] it was more than 100 µM; in assay [6] it was > 100 µM (inactive); in [7], > 100 µM (inactive); in assay [8], > 100 µM (inactive). Moreover, the GI50 in assay [19], in assay [9], in [10], in assay [11], in [12] and in [13] was > 100 µM (inactive) in each case. In addition, the GI50 in assay [14], in assay [16] and in [17] was > 100 µM (inactive) each time.
Regarding `COP1(=O)NCc2ncccc2O1` (centres undefined), the GI50 in assay [1] was > 100 µM (inactive); in [2] it was > 100 µM (inactive); in assay [3] it was > 100 µM (inactive); in assay [4] it was more than 100 µM; in [5] it was > 100 µM (inactive); in assay [6], > 100 µM (inactive). Further, the GI50 in assay [7], in assay [8], in [19], in assay [9], in [10] and in [11] was > 100 µM (inactive) throughout. For the same molecule, the GI50 in [12], in assay [13], in [14], in assay [15], in assay [16] and in assay [17] was > 100 µM (inactive) each time.
Consider `CCOc1ccc(NC2=NC(=O)C(CC(=O)Nc3ccccc3[N+](=O)[O-])S2)cc1` (centres undefined), for which the GI50 in [1] is > 100 µM (inactive); in [2] it was 94 µM (inactive); in [3], > 100 µM (inactive); in [4] it was more than 100 µM; in assay [5] it was > 100 µM (inactive); in assay [6], > 100 µM (inactive). Besides, the GI50 in assay [7], in assay [8], in assay [19], in assay [9], in assay [10] and in assay [11] was > 100 µM (inactive) in each case. In addition, the GI50 in [12], in [13], in [14], in assay [15], in assay [16] and in [17] was > 100 µM (inactive) throughout.
As to `CCC12C=CCN3CCC4(c5cc(C6(C(=O)OC)CCCCCc7c6[nH]c6ccccc76)c(OC)cc5N(C)C4C(O)(C(=O)OC)C1OC(C)=O)C32` (centres undefined), the GI50 in assay [1] is 2.4 µM (inactive); in assay [2], 1.64 µM (inactive); in assay [3], 3.63 µM (inactive); in [4], 2.1 µM; in assay [5], 2.3 µM (inactive); in assay [7] it was 2.47 µM (inactive). The GI50 in [8] is 2.9 µM (inactive); in assay [19], 1.9 µM (inactive); in assay [9], 2.04 µM (inactive); in [10] it was 3.83 µM (inactive); in assay [11] it was 1.97 µM (inactive); in [12], 2.08 µM (inactive). For the same molecule, the GI50 is 2.25 µM (inactive) in assay [13]; 2.23 µM (inactive) in [14]; 2.16 µM (inactive) in assay [15]; 2 µM (inactive) in [16]; 0.562 µM (active) in [17].
Regarding `CO[C@@]12CC(=O)/C(=C(O)\C=C\c3ccccc3)C(=O)[C@]1(OC)Cc1ccccc1O2`, the GI50 was 33.3 µM (inactive) in assay [1]; 21.9 µM (inactive) in assay [2]; 30.6 µM (inactive) in assay [3]; 20 µM in assay [4]; 77.1 µM (inactive) in assay [5]; 30.1 µM (inactive) in assay [6]. Besides, the GI50 is 30.1 µM (inactive) in assay [8]; 41.7 µM (inactive) in [19]; 22.3 µM (inactive) in [9]; 26.2 µM (inactive) in [10]; 22.4 µM (inactive) in assay [11]; 21.1 µM (inactive) in [12]. For the same molecule, the GI50 was 24 µM (inactive) in [13]; 22.4 µM (inactive) in [14]; 54 µM (inactive) in assay [15]; 40 µM (inactive) in assay [16]; 37.5 µM (inactive) in [17]; 54 µM (inactive) in assay [18].
In the case of `CCOC(=O)NC(=O)c1cn(C2OC(COC(=O)CCCCCCCCC(=O)OCC3OC(n4cc(C(=O)NC(=O)OCC)c(=O)[nH]c4=O)C4OC(C)(C)OC34)C3OC(C)(C)OC32)c(=O)[nH]c1=O` (centres undefined), the GI50 in assay [1] is > 100 µM (inactive); in [2], > 100 µM (inactive); in [3], 83.8 µM (inactive); in [4], more than 100 µM; in assay [5] it was 56.9 µM (inactive); in assay [6], > 100 µM (inactive). Besides, the GI50 is 44 µM (inactive) in assay [7]; 39.6 µM (inactive) in [8]; > 100 µM (inactive) in assay [19]; 57.3 µM (inactive) in [9]; 75.9 µM (inactive) in assay [10]; 30.1 µM (inactive) in assay [11]. Besides, the GI50 was > 100 µM (inactive) in assay [13]; 84.1 µM (inactive) in assay [14]; > 100 µM (inactive) in assay [15]; > 100 µM (inactive) in assay [16]; 79.8 µM (inactive) in assay [17].
For `CCOC(=O)NC(=O)c1cn(CCOC(=O)CCCCCCCCC(=O)OCCn2cc(C(=O)NC(=O)OCC)c(=O)[nH]c2=O)c(=O)[nH]c1=O`, the GI50 in [1] was > 100 µM (inactive); in assay [2], > 100 µM (inactive); in assay [3], > 100 µM (inactive); in assay [4] it was more than 100 µM; in assay [5], > 100 µM (inactive); in assay [6], > 100 µM (inactive). In addition, the GI50 in assay [7], in assay [8], in assay [19], in assay [9], in assay [10] and in assay [11] was > 100 µM (inactive) in each case. In addition, the GI50 in [13], in assay [14], in assay [15], in assay [16] and in [17] was > 100 µM (inactive) throughout.
As to `CO/C(=N\N=C\c1ccc(OC)cc1OC)c1ccncc1`, the GI50 in assay [1] was > 10 µM (inactive); in assay [3], > 10 µM (inactive); in assay [4], more than 10 µM; in assay [5], > 10 µM (inactive); in assay [7], > 10 µM (inactive); in assay [8], > 10 µM (inactive). The GI50 in [19], in assay [9], in [11], in assay [12], in assay [13] and in assay [14] was > 10 µM (inactive) each time. Further, the GI50 in assay [15], in [16] and in assay [18] was > 10 µM (inactive) each time.
Turning to `COC(=O)C1=C(C)N(NC(=O)c2cccc(Cl)c2)C(C)(O)C12CCOC2=O` (centres undefined), the GI50 in [1] is > 100 µM (inactive); in [2], > 100 µM (inactive); in assay [3], > 100 µM (inactive); in assay [4], more than 100 µM; in assay [5] it was > 100 µM (inactive); in assay [6], > 100 µM (inactive). For the same molecule, the GI50 in assay [7], in assay [8], in assay [19], in assay [9], in assay [10] and in assay [12] was > 100 µM (inactive) in each case. Besides, the GI50 in assay [13], in assay [14], in assay [15], in [16], in [17] and in assay [18] was > 100 µM (inactive) in each case.
With `Cc1c(O)c(O)cc[n+]1C1OC(CO)C(O)C1O` (centres undefined), the GI50 in [1] was > 100 µM (inactive); in assay [2], > 100 µM (inactive); in assay [3], > 100 µM (inactive); in [4], more than 100 µM; in [5], > 100 µM (inactive); in assay [6], > 100 µM (inactive). Besides, the GI50 in assay [7], in assay [8], in assay [19], in [9], in [11] and in assay [12] was > 100 µM (inactive) each time. Further, the GI50 in assay [14], in assay [15], in [16], in assay [17] and in assay [18] was > 100 µM (inactive) in each case.

Source of the values: ChEMBL document CHEMBL1201862, “PubChem BioAssay data set” (2004).
